Assay results as given in patent US8987195B2 (priority 2012, dated 2015).
Where two headings read alike, the source gives them in different places.

Key:
HCV genotype 1b replicon = assay: HCV replicon assay, genotype 1b replicon EC50; type: cell-based, Hepatitis C virus; settings: Hepatitis C virus, read-out: EC50 [gt-1b]
How it was run: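 Compound dilution series incubated 24-48 h, G418 absent, with HCV genotype 1b replicon cell lines kept under G418 selection beforehand. Luciferase signal or replicon RNA, by ^32P hybridization/protection or TaqMan normalized to cyclophilin A, was measured after washing and lysis. Four-parameter fitting against DMSO control gave EC50.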

[1] = target: HCV NS3/4A protease genotype 1b (Hepatitis C virus genotype 1b, UniProt P26663); assay: HCV NS3/4A protease time-resolved fluorescence (TRF) assay, Ki against genotype 1b; type: biochemical
How it was run: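 NS3/4A enzyme was preincubated 30 min with inhibitor in 50 mM HEPES pH 7.5, 150 mM NaCl, 15% glycerol, 0.15% Triton X-100, 10 mM DTT, 0.1% PEG 8000; 25 nM europium TRF peptide substrate added, 2.5 h at room temperature. Enzyme: 0.2 nM (1b), 0.4 nM (A156T), 0.025 nM (3a). Ki from IC50 via Cheng-Prusoff.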

[2] = IC50 [gt-1b] (nM), NS3/4A genotype 1b, enzyme 0.2 nM
[3] = IC50 [gt-1b], NS3/4A protease TRF assay, genotype 1b enzyme 0.2 nM

SMILES	EC50 (HCV genotype 1b replicon; genotype 1b replicon)	IC50 [1, 2]	further results
CC(C)(C)OC(=O)N[C@H]1CCCCC/C=C\[C@@H]2C[C@@]2(C(=O)NS(=O)(=O)C2(C)CC2)NC(=O)[C@@H]2C[C@]3(CCc4c(c(C(F)(F)F)nc5ccc(OCCN6CCOCC6)cc45)O3)CN2C1=O [Example 7, tert-Butyl ((2R,6S,13aS,14aR,16aS,Z)-14a-(((1-methylcyclopropyl)sulfonyl)carbamoyl)-9′-(2-morpholinoethoxy)-5,16-dioxo-5′-(trifluoromethyl)-1′,2′,3,5,6,7,8,9,10, 11,13a,14,14a,15,16,16a-hexadecahydro-1H-spiro[cyclopropa[e]pyrrolo[1,2-a][1,4]diazacyclopentadecine-2,3′-pyrano[2,3-c]quinolin]-6-yl)carbamate]	0.433 nM	0.02 nM	
Cc1ccc2nc(C)c3c(c2c1)CC[C@]1(C[C@H]2C(=O)N[C@]4(C(=O)NS(=O)(=O)C5CC5)C[C@H]4/C=C\CCCCC[C@H](NC(=O)OC(C)(C)C)C(=O)N2C1)O3 [Example 87, tert-butyl {(2R,6S,12Z,13aS,14aR,16aS)-14a-[(cyclopropylsulfonyl)carbamoyl]-5′,9′-dimethyl-5,16-dioxo-1,1′,2′,5,6,7,8,9,10,11,13a,14,14a,15,16,16a-hexadecahydrospiro[cyclopropa[e]pyrrolo[1,2-a][1,4]diazacyclopentadecine-2,3′-pyrano[2,3-c]quinolin]-6-yl}carbamate]	5.87 nM	0.01 nM	
Cc1nc2ccccc2c2c1O[C@@]1(C[C@H]3C(=O)N[C@]4(C(=O)NS(=O)(=O)C5(C)CC5)C[C@H]4/C=C\CCCCC[C@H](NC(=O)OCC(C)C)C(=O)N3C1)CC2(F)F [Example 106, 2-methylpropyl [(2S,6S,12Z,13aS,14aR,16aS)-1′,1′-difluoro-5′-methyl-14a-{[(1-methylcyclopropyl)sulfonyl]carbamoyl}-5,16-dioxo-1,1′,2′,5,6,7,8,9,10,11,13a,14,14a,15,16,16a-hexadecahydrospiro[cyclopropa[e]pyrrolo[1,2-a][1,4]diazacyclopentadecine-2,3′-pyrano[2,3-c]quinolin]-6-yl]carbamate]	3.21 nM	0.048 nM	
CCN(CC)C(=O)N[C@H]1CCCCC/C=C\[C@@H]2C[C@@]2(C(=O)NS(=O)(=O)C2(C)CC2)NC(=O)[C@@H]2C[C@]3(CCc4c(c(C)nc5ccccc45)O3)CN2C1=O [Example 289, (2R,6S,12Z,13aS,14aR,16aS)-6-[(diethylcarbamoyl)amino]-5′-methyl-N-[(1-methylcyclopropyl)sulfonyl]-5,16-dioxo-1,1′,2′,6,7,8,9,10,11,13a,14,15,16,16a-tetradecahydrospiro[cyclopropa[e]pyrrolo[1,2-a][1,4]diazacyclopentadecine-2,3′-pyrano[2,3-c]quinoline]-14a(5H)-carboxamide]			EC50 (HCV genotype 1b replicon; genotype 1b replicon, HCOOH salt): 7 nM; IC50 ([1]; IC50 [gt-1b] (nM), NS3/4A genotype 1b, enzyme 0.2 nM, HCOOH salt): 0.023 nM
CC(C)(OC(=O)N[C@H]1CCCCC/C=C\[C@@H]2C[C@@]2(C(=O)NS(=O)(=O)C2(C)CC2)NC(=O)[C@@H]2C[C@]3(CCc4c(c(C(F)F)nc5ccccc45)O3)CN2C1=O)C(F)(F)F [Example 309, 1,1,1-trifluoro-2-methylpropan-2-yl [(2R,6S,12Z,13aS,14aR,16aS)-5′-(difluoromethyl)-14a-{[(1-methylcyclopropyl)sulfonyl]carbamoyl}-5,16-dioxo-1,1′,2′,5,6,7,8,9,10,11,13a,14,14a,15,16,16a-hexadecahydrospiro[cyclopropa[e]pyrrolo[1,2-a][1,4]diazacyclopentadecine-2,3′-pyrano[2,3-c]quinolin]-6-yl]carbamate]	1.94 nM	0.01 nM	
CC(C)COC(=O)N[C@H]1CCCCC/C=C\[C@@H]2C[C@@]2(C(=O)NS(=O)(=O)C2(C)CC2)NC(=O)[C@@H]2C[C@]3(CCc4c(c(C(F)(F)F)nc5ccc(OCCN6CCOCC6)cc45)O3)CN2C1=O [Example 471, 2-methylpropyl [(2R,6S,12Z,13aS,14aR,16aS)-14a-{[(1-methylcyclopropyl)sulfonyl]carbamoyl}-9′-[2-(morpholin-4-yl)ethoxy]-5,16-dioxo-5′-(trifluoromethyl)-1,1′,2′,5,6,7,8,9,10,11,13a,14,14a,15,16,16a-hexadecahydrospiro[cyclopropa[e]pyrrolo[1,2-a][1,4]diazacyclopentadecine-2,3′-pyrano[2,3-c]quinolin]-6-yl]carbamate]			EC50 (HCV genotype 1b replicon; HCV replicon, genotype 1b, HCl salt): 3.06 nM; IC50 ([1]; IC50 [gt-1b], NS3/4A protease TRF assay, genotype 1b enzyme 0.2 nM, HCl salt): 0.021 nM
CCCOC(=O)N[C@H]1CCCCC/C=C\[C@@H]2C[C@@]2(C(=O)NS(=O)(=O)C2(C)CC2)NC(=O)[C@@H]2C[C@]3(CCc4c(c(C(F)F)nc5ccccc45)O3)CN2C1=O [Example 325, propyl [(2R,6S,12Z,13aS,14aR,16aS)-5′-(difluoromethyl)-14a-{[(1-methylcyclopropyl)sulfonyl]carbamoyl}-5,16-dioxo-1,1′,2′,5,6,7,8,9,10,11,13a,14,14a,15,16,16a-hexadecahydrospiro[cyclopropa[e]pyrrolo[1,2-a][1,4]diazacyclopentadecine-2,3′-pyrano[2,3-c]quinolin]-6-yl]carbamate]	3.23 nM	0.013 nM	
Cc1nc2c(C(F)(F)F)cccc2c2c1O[C@]1(CC2)C[C@H]2C(=O)N[C@]3(C(=O)NS(=O)(=O)C4(C)CC4)C[C@H]3/C=C\CCCCC[C@H](NC(=O)OC(C)C)C(=O)N2C1 [Example 114, propan-2-yl [(2R,6S,12Z,13aS,14aR,16aS)-5′-methyl-14a-{[(1-methylcyclopropyl)sulfonyl]carbamoyl}-5,16-dioxo-7′-(trifluoromethyl)-1,1′,2′,5,6,7,8,9,10,11,13a,14,14a,15,16,16a-hexadecahydrospiro[cyclopropa[e]pyrrolo[1,2-a][1,4]diazacyclopentadecine-2,3′-pyrano[2,3-c]quinolin]-6-yl]carbamate]	3.53 nM	0.308 nM	
COCC1(S(=O)(=O)NC(=O)[C@@]23C[C@H]2/C=C\CCCCC[C@H](NC(=O)OC2(C)CCC2)C(=O)N2C[C@@]4(CCc5c(c(C(F)(F)F)nc6ccc(OC)cc56)O4)C[C@H]2C(=O)N3)CC1 [Example 495, 1-methylcyclobutyl [(2R,6S,12Z,13aS,14aR,16aS)-9′-methoxy-14a-({[1-(methoxymethyl)cyclopropyl]sulfonyl}carbamoyl)-5,16-dioxo-5′-(trifluoromethyl)-1,1′,2′,5,6,7,8,9,10,11,13a,14,14a,15,16,16a-hexadecahydrospiro[cyclopropa[e]pyrrolo[1,2-a][1,4]diazacyclopentadecine-2,3′-pyrano[2,3-c]quinolin]-6-yl]carbamate]			EC50 (HCV genotype 1b replicon; HCV replicon, genotype 1b): 1.45 nM; IC50 [1, 3]: 0.007 nM
COc1ccc2nc(C3CC3)c3c(c2c1)[C@H](F)C[C@]1(C[C@H]2C(=O)N[C@]4(C(=O)NS(=O)(=O)C5(C)CC5)C[C@H]4/C=C\CCCCC[C@H](NC(=O)OCC(C)C)C(=O)N2C1)O3 [Example 454, 2-methylpropyl [(1′R,2S,6S,12Z,13aS,14aR,16aS)-5′-cyclopropyl-1′-fluoro-9′-methoxy-14a-{[(1-methylcyclopropyl)sulfonyl]carbamoyl}-5,16-dioxo-1,1′,2′,5,6,7,8,9,10,11,13a,14,14a,15,16,16a-hexadecahydrospiro[cyclopropa[e]pyrrolo[1,2-a][1,4]diazacyclopentadecine-2,3′-pyrano[2,3-c]quinolin]-6-yl]carbamate]			EC50 (HCV genotype 1b replicon; HCV replicon, genotype 1b, K+ salt): 1.38 nM; IC50 ([1]; IC50 [gt-1b], NS3/4A protease TRF assay, genotype 1b enzyme 0.2 nM, K+ salt): 0.024 nM
CC(C)(C)OC(=O)N[C@H]1CCCCC/C=C\[C@@H]2C[C@@]2(C(=O)NS(=O)(=O)C2(C)CC2)NC(=O)[C@@H]2C[C@]3(CCc4c(c(C(F)(F)F)nc5ccc(OCCN6CC(F)(F)C6)cc45)O3)CN2C1=O [Example 518, tert-butyl [(2R,6S,12Z,13aS,14aR,16aS)-9′-[2-(3,3-difluoroazetidin-1-yl)ethoxy]-14a-{[(1-methylcyclopropyl)sulfonyl]carbamoyl}-5,16-dioxo-5′-(trifluoromethyl)-1,1′,2′,5,6,7,8,9,10,11,13a,14,14a,15,16,16a-hexadecahydrospiro[cyclopropa[e]pyrrolo[1,2-a][1,4]diazacyclopentadecine-2,3′-pyrano[2,3-c]quinolin]-6-yl]carbamate]			EC50 (HCV genotype 1b replicon; HCV replicon, genotype 1b): 0.726 nM; IC50 [1, 3]: 0.012 nM
Cc1nc2cc(F)ccc2c2c1O[C@]1(CC2)C[C@H]2C(=O)N[C@]3(C(=O)NS(=O)(=O)C4(C)CC4)C[C@H]3/C=C\CCCCC[C@H](NC(=O)OC(C)(C)C(F)(F)F)C(=O)N2C1 [Example 328, 1,1,1-trifluoro-2-methylpropan-2-yl [(2R, 6S,12Z,13aS,14aR,16aS)-8′-fluoro-5′-methyl-14a-{[(1-methylcyclopropyl)sulfonyl]carbamoyl}-5,16-dioxo-1,1′,2′,5,6,7,8,9,10,11,13a,14,14a,15,16,16a-hexadecahydrospiro[cyclopropa[e]pyrrolo[1,2-a][1,4]diazacyclopentadecine-2,3′-pyrano[2,3-c]quinolin]-6-yl]carbamate]			EC50 (HCV genotype 1b replicon; genotype 1b replicon, K+ salt): 47 nM; IC50 ([1]; IC50 [gt-1b] (nM), NS3/4A genotype 1b, enzyme 0.2 nM, K+ salt): 0.348 nM
